Source: ChEMBL document CHEMBL5620406, “Synthesis and biological evaluation of novel pyrazole amides as potent mitochondrial complex I inhibitors” (Eur J Med Chem, 2023)
The source made the active and inactive calls. No cut-off for these calls is given here.

Tests used:
[1] = Toxicity in NOD-SCID mouse xenografted with human KG-1 cells assessed as effect on UA level at 5 mg/kg, ip qd administered 5 consecutive days per week for 24 days; assay type: organism-based; conditions: in vivo, 576 h, time 24 day
[2] = test system: KG-1; experiment: Antitumor activity against human KG-1 cells xenografted in NOD-SCID mouse assessed as tumor growth inhibition at 5 mg/kg, ip qd administered 5 consecutive days per week for 24 days; assay type: functional; conditions: KG-1, 576 h, time 24 day, read-out: TGI
[3] = Acute toxicity in BALB/c mouse assessed as decrease in body weight at 68 mg/kg, ip measured for 6 days; assay type: organism-based; conditions: in vivo, 144 h, time 6 day
[4] = Acute toxicity in BALB/c mouse assessed as spleen damage at 40 to 68 mg/kg, ip measured on day 14 by H and E staining based analysis; assay type: organism-based; conditions: in vivo, 336 h, dose 40-68 mg/kg, time 14 day
[5] = Toxicity in NOD-SCID mouse xenografted with human KG-1 cells assessed as effect on TP level at 5 mg/kg, ip qd administered 5 consecutive days per week for 24 days; assay type: organism-based; conditions: in vivo, 576 h, time 24 day
[6] = Toxicity in NOD-SCID mouse xenografted with human KG-1 cells assessed as effect on MCHC level at 5 mg/kg, ip qd administered 5 consecutive days per week for 24 days; assay type: organism-based; conditions: in vivo, 576 h, time 24 day
[7] = Toxicity in NOD-SCID mouse xenografted with human KG-1 cells assessed as effect on spleen damage at 5 mg/kg, ip qd administered 5 consecutive days per week for 24 days by H and E staining based analysis; assay type: organism-based; conditions: in vivo, 576 h, time 24 day
[8] = test system: HCT-116; experiment: Induction of mitochondrial dysfunction in human HCT-116 cells assessed as attenuation of maximum oxygen consumption rate incubated for 24 hrs by Seahorse XFe24 analyzer; assay type: functional, cell-based; conditions: dose 2-10 nM
[9] = Toxicity in NOD-SCID mouse xenografted with human KG-1 cells assessed as effect on ALP level at 5 mg/kg, ip qd administered 5 consecutive days per week for 24 days; assay type: organism-based; conditions: in vivo, 576 h, time 24 day
[10] = test system: HCT-116; experiment: Induction of ROS generation in human HCT-116 cells measured for 30 mins by DCFDA-staining based flow cytometry analysis; assay type: functional, cell-based; conditions: dose <= 0.5 nM
[11] = test system: KG-1; experiment: Induction of ROS generation in human KG-1 cells measured for 30 mins by DCFDA-staining based flow cytometry analysis; assay type: functional, cell-based; conditions: dose <= 0.5 nM
[12] = Toxicity in NOD-SCID mouse xenografted with human KG-1 cells assessed as effect on kidney damage at 5 mg/kg, ip qd administered 5 consecutive days per week for 24 days by H and E staining based analysis; assay type: organism-based; conditions: in vivo, 576 h, time 24 day
[13] = organism: Homo sapiens; experiment: Inhibition of mitochondrial complex I (unknown origin) at 1 uM incubated for 15 mins by microplate reader analysis relative to control
[14] = Acute toxicity in BALB/c mouse assessed as kidney damage at 40 to 68 mg/kg, ip measured on day 14 by H and E staining based analysis; assay type: organism-based; conditions: in vivo, 336 h, dose 40-68 mg/kg, time 14 day
[15] = Acute toxicity in BALB/c mouse assessed as heart damage at 40 to 68 mg/kg, ip measured on day 14 by H and E staining based analysis; assay type: organism-based; conditions: in vivo, 336 h, dose 40-68 mg/kg, time 14 day
[16] = Toxicity in NOD-SCID mouse xenografted with human KG-1 cells assessed as effect on WBC count at 5 mg/kg, ip qd administered 5 consecutive days per week for 24 days; assay type: organism-based; conditions: in vivo, 576 h, time 24 day
[17] = test system: HCT-116; experiment: Induction of mitochondrial dysfunction in human HCT-116 cells assessed as attenuation of oxygen consumption rate incubated for 24 hrs by Seahorse XFe24 analyzer; assay type: functional, cell-based; conditions: dose 2-10 nM
[18] = Toxicity in NOD-SCID mouse xenografted with human KG-1 cells assessed as effect on CHO2 level at 5 mg/kg, ip qd administered 5 consecutive days per week for 24 days; assay type: organism-based; conditions: in vivo, 576 h, time 24 day
[19] = Toxicity in NOD-SCID mouse xenografted with human KG-1 cells assessed as effect on ALT level at 5 mg/kg, ip qd administered 5 consecutive days per week for 24 days; assay type: organism-based; conditions: in vivo, 576 h, time 24 day
[20] = Acute toxicity in BALB/c mouse assessed as effect on TP level at 68 mg/kg, ip measured on day 14; assay type: organism-based; conditions: in vivo, 336 h, time 14 day
[21] = Apparent permeability across basolateral side to apical in human Caco-2 cells incubated for 120 mins by LC-MS/MS analysis; assay type: ADME, cell-based
[22] = test system: HCT-116; experiment: Induction of mitochondrial dysfunction in human HCT-116 cells assessed as increase in extracellular acidification rate at 2 to 10 nM incubated for 24 hrs by Seahorse XFe24 analyzer; assay type: functional, cell-based; conditions: dose 2-10 nM
[23] = Acute toxicity in BALB/c mouse assessed as effect on WBC level at 68 mg/kg, ip measured on day 14; assay type: organism-based; conditions: in vivo, 336 h, time 14 day
[24] = test system: HCT-116; experiment: Induction of mitochondrial dysfunction in human HCT-116 cells assessed as attenuation of oxygen consumption rate at 2 nM incubated for 24 hrs by Seahorse XFe24 analyzer; assay type: functional, cell-based
[25] = test system: HCT-116; experiment: Induction of mitochondrial dysfunction in human HCT-116 cells assessed as inhibition of OXPHOS at 2 to 10 nM incubated for 24 hrs by Seahorse XFe24 analyzer; assay type: functional, cell-based; conditions: dose 2-10 nM
[26] = Toxicity in NOD-SCID mouse xenografted with human KG-1 cells assessed as effect on MPV at 5 mg/kg, ip qd administered 5 consecutive days per week for 24 days; assay type: organism-based; conditions: in vivo, 576 h, time 24 day
[27] = Acute toxicity in BALB/c mouse assessed as effect on ALT level at 68 mg/kg, ip measured on day 14; assay type: organism-based; conditions: in vivo, 336 h, time 14 day
[28] = Toxicity in NOD-SCID mouse xenografted with human KG-1 cells assessed as effect on liver damage at 5 mg/kg, ip qd administered 5 consecutive days per week for 24 days by H and E staining based analysis; assay type: organism-based; conditions: in vivo, 576 h, time 24 day
[29] = target: Cytochrome P450 2C9 (Homo sapiens, UniProt P11712); experiment: Inhibition of CYP2C9 in human liver microsomes incubated for 10 mins in presence of NADPH by LC/MS/MS analysis; assay type: ADME, Microsome
Cytochrome P450 2C9, sequence (P11712 whole entry): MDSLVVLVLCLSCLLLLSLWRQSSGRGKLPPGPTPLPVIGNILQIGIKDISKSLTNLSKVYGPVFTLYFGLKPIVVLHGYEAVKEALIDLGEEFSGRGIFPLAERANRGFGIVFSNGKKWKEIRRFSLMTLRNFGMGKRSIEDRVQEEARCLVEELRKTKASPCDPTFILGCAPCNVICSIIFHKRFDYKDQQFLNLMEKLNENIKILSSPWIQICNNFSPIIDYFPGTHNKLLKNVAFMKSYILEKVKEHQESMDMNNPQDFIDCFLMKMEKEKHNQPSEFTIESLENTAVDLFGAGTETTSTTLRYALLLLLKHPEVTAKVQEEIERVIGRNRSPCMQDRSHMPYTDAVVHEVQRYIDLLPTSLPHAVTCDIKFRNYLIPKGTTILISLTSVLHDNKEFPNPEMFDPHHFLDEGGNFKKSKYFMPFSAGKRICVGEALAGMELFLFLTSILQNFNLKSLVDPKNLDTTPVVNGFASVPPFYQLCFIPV

[30] = Acute toxicity in BALB/c mouse assessed as decrease in behavioral activity at 40 mg/kg, ip measured for 24 hrs; assay type: organism-based; conditions: in vivo
[31] = test system: HCT-116; experiment: Induction of mitochondrial membrane potential depolarization in human HCT-116 cells at 2 nM incubated for 24 hrs by JC-1 staining based flow cytometry analysis; assay type: functional
[32] = Toxicity in NOD-SCID mouse xenografted with human KG-1 cells assessed as effect on RBC count at 5 mg/kg, ip qd administered 5 consecutive days per week for 24 days; assay type: organism-based, Erythrocyte; conditions: in vivo, 576 h, time 24 day
[33] = test system: HCT-116; experiment: Induction of mitochondrial dysfunction in human HCT-116 cells assessed as attenuation of oxygen consumption rate at 10 nM incubated for 24 hrs by Seahorse XFe24 analyzer; assay type: functional, cell-based
[34] = Acute toxicity in BALB/c mouse assessed as lung damage at 40 to 68 mg/kg, ip measured on day 14 by H and E staining based analysis; assay type: organism-based; conditions: in vivo, 336 h, dose 40-68 mg/kg, time 14 day
[35] = Apparent permeability across apical to basolateral side in human Caco-2 cells incubated for 120 mins by LC-MS/MS analysis; assay type: ADME, cell-based
[36] = Acute toxicity in BALB/c mouse assessed as effect on BUN level at 68 mg/kg, ip measured on day 14; assay type: organism-based; conditions: in vivo, 336 h, time 14 day
[37] = Acute toxicity in BALB/c mouse assessed as effect on PLT level at 68 mg/kg, ip measured on day 14; assay type: organism-based; conditions: in vivo, 336 h, time 14 day

Row | Compound | Activity [1] | inhibition in vivo at 5 mg/kg [2] [%] | Activity [3] | Activity [4] | Activity [5] | Activity [6] | Activity [7] | Activity [8] | Activity [9] | Activity [10] | Activity [11] | Activity [12] | inhibition [13] [%] | Activity [14] | Activity [15] | Activity [16] | Activity [17] | Activity [18] | Activity [19] | Activity [20] | other results
1 | Cc1cc(C(=O)Nc2ccc(OC(F)(F)F)cc2)nn1Cc1cccc(N2CCN(C(=O)C3CC3)CC2)c1 | Non-Toxic | 61.5 | Non-Toxic | Non-Toxic | Non-Toxic | Non-Toxic | Non-Toxic | Dose-Dependent Effect | Non-Toxic | Dose-Dependent Effect | Dose-Dependent Effect | Non-Toxic | 48.6 | Non-Toxic | Non-Toxic | Non-Toxic | Dose-Dependent Effect | Non-Toxic | Non-Toxic | Non-Toxic | Papp B→A at 2 h [21]: 3.25 ×10⁻⁶ cm/s; Activity [22]: Active; Activity [23]: Non-Toxic; Activity [24]: Active; Activity [25]: Active; Activity [26]: Non-Toxic; Activity [27]: Non-Toxic; Activity [28]: Non-Toxic; IC50 [29]: 1830 nM; Activity [30]: Non-Toxic; Activity [31]: 34.3%; Activity [32]: Non-Toxic; Activity [33]: Active; Activity [34]: Non-Toxic; Papp A→B at 2 h [35]: 5.74 ×10⁻⁶ cm/s; Activity [36]: Non-Toxic; Activity [37]: Non-Toxic
2 | Cc1cc(C(=O)Nc2ccc(C(F)(F)F)cc2)nn1Cc1cccc(N2CCN(C(=O)C3CC3)CC2)c1 | Non-Toxic | 65.9 | Non-Toxic | Non-Toxic | Non-Toxic | Non-Toxic | Non-Toxic | Dose-Dependent Effect | Non-Toxic | Dose-Dependent Effect | Dose-Dependent Effect | Non-Toxic | 55.4 | Non-Toxic | Non-Toxic | Non-Toxic | Dose-Dependent Effect | Non-Toxic | Non-Toxic | Non-Toxic | Papp B→A at 2 h [21]: 3.08 ×10⁻⁶ cm/s; Activity [22]: Active; Activity [23]: Non-Toxic; Activity [24]: Active; Activity [25]: Active; Activity [26]: Non-Toxic; Activity [27]: Non-Toxic; Activity [28]: Non-Toxic; IC50 [29]: 1010 nM; Activity [30]: Non-Toxic; Activity [31]: 26.5%; Activity [32]: Non-Toxic; Activity [33]: Active; Activity [34]: Non-Toxic; Papp A→B at 2 h [35]: 5.83 ×10⁻⁶ cm/s; Activity [36]: Non-Toxic; Activity [37]: Non-Toxic
